Our source for the IC50 and GI50 values is US20220288069A1, “INHIBITORS OF TYROSINE KINASE” (BridGene Biosciences, Inc., priority 2019, published 2022).

The target in assay [1] is T1, FGR (Homo sapiens, UniProt P09769).
T1 construct: purchased BPS 4022
Nature of the assay: Caliper mobility shift kinase inhibition assay, FGR. The assay is classed as biochemical. Conditions: recombinant kinase; enzyme 0.3 nM, ATP 50 μM, incubation 3 hr. The procedure:
(§1) Compounds' inhibition of recombinant kinases (FGR, FLT3, FMS, KIT, or RON) was measured using Caliper mobility shift assay, which is based on the difference in capillary electrophoresis mobility of a fluorescent-tagged peptide as a result of a phosphorylation by the kinase under study. Reactions were started by the addition of various concentrations of a compound (originally in DMSO solution) to a kinase solution in assay buffer followed by addition of a mixture of ATP and a fluorescent-tagged peptide substrate in assay buffer. Concentrations of the enzyme, ATP and the peptide were pre-optimized so that 15% substrate conversion to ensure initial velocity measurements. After incubation for 3 hours at room temperature, the kinase reaction was quenched by the addition of a concentrated EDTA solution before analysis on a LabChip EZ Reader II to yield percentage inhibition by comparing to the DMSO control.
(§2) Table 2 below summarizes the assay conditions for the characterization of the kinase inhibition properties of the disclosed compounds.

For assay [2], the target named is T2, KIT (Homo sapiens, UniProt P10721).
T2 construct: purchased BPS 40250
T2 sequence (P10721 26-976): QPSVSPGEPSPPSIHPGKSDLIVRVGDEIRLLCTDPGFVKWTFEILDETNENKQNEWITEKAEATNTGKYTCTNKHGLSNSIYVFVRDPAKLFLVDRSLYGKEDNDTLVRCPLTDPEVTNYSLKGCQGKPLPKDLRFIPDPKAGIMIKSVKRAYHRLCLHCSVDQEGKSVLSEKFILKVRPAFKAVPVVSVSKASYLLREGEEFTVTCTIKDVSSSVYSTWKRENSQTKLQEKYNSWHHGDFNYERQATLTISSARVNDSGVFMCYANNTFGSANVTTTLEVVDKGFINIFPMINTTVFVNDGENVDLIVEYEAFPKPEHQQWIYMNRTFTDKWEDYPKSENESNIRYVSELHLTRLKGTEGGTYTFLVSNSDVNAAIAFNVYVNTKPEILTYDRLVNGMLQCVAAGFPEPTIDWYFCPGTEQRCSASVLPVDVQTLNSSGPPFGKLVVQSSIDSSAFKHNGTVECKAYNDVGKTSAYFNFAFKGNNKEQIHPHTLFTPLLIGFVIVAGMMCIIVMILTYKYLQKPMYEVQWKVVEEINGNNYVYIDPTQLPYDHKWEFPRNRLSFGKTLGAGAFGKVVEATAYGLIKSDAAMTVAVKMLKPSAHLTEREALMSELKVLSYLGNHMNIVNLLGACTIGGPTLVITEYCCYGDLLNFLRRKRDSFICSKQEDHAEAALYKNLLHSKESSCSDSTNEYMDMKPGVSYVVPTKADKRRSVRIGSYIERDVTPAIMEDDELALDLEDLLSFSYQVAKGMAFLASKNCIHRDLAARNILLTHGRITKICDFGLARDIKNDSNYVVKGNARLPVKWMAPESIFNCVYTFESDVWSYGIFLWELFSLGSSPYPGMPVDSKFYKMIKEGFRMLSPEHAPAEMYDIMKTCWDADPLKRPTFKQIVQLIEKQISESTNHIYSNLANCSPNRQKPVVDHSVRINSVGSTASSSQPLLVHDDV
Nature of the assay: Caliper mobility shift kinase inhibition assay, KIT. The assay is classed as biochemical. The settings on record: recombinant kinase; enzyme 0.9 nM, ATP 400 μM, incubation 17 hr. The method, then:
as §1, with “After incubation for 3 hours at room temperature, the kinase reaction was quenched by the addition of a concentrated EDTA solution before analysis on a LabChip EZ Reader II to yield percentage inhibition by comparing to the DMSO control.” left out
as §2

The target of assay [3] is T3, FLT3 (Homo sapiens, UniProt P36888).
T3 construct: purchased ThermoFisher PV3182
T3 sequence (P36888 27-993): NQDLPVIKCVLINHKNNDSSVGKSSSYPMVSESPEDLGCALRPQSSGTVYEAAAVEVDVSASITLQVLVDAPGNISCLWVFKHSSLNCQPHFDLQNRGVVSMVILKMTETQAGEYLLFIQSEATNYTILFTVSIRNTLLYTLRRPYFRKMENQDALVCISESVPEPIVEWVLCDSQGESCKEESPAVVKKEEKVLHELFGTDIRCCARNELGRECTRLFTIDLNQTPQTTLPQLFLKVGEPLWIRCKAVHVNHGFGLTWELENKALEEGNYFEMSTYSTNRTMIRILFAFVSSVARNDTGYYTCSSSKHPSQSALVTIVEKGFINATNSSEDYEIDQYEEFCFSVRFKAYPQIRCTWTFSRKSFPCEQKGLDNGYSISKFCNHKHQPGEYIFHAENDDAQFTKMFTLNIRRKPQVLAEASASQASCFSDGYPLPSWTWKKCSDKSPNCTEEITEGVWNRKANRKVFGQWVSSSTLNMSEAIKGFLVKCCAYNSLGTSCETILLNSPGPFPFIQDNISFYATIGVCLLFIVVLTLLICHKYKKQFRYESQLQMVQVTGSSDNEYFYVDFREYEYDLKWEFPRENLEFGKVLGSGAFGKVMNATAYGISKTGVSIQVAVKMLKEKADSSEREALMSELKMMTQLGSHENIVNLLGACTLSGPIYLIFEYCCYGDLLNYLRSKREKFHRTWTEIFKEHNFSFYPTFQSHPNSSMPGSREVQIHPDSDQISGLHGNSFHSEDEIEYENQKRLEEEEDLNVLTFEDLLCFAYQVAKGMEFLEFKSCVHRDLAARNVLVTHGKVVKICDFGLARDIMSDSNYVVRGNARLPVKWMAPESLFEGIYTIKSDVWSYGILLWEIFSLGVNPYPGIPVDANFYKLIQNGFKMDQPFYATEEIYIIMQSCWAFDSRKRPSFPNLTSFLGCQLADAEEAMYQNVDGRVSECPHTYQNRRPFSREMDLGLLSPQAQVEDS
Nature of the assay: Caliper mobility shift kinase inhibition assay, FLT3. It counts as biochemical. Conditions: recombinant kinase; enzyme 0.1 nM, ATP 95 μM, incubation 3 hr. The procedure:
as §1, §2

The test system of assay [4] is THP−1. Put plainly: Cell viability assay (CellTiter-Glo), THP-1. The assay is classed as cell-based. Conditions: Homo sapiens, THP-1 cells, 72 hr. The method, then: (§3) Cell viability assay was performed based on the following brief procedures. Cells were plated at the density of 5K/well with volume of […] in 96-well white plate and clear bottom plates. 20 μL of veh. or compound was added at proper concentration to the well. The final volume is 200 μL, with final conc. of DMSO32 0.1%, 11 points, triplicates. The cells were then treated at 37° C. in the TC incubator for 72 hr. Equal volume (200 μL) of CellTiter-Glo reagent (Promega) was added to the well and protect from light at room temperature for 15 min. The chemiluminicent was measured with EnSight (Perkin Elmer). GraphPad Prism non-linear regression, Log[inhibitor] response with four parameters were used to calculate GI50.

The subject of assay [5] is MV4−11. Nature of the assay: Cell viability assay (CellTiter-Glo), MV4-11. The assay is classed as cell-based. Conditions: Homo sapiens, MV4-11 cells, 72 hr. The method, then: as §3
Assay [6] deals with T4, RON (Homo sapiens, UniProt Q04912).
T4 construct: purchased Invitrogen PV4314
T4 sequence (Q04912 25-1400): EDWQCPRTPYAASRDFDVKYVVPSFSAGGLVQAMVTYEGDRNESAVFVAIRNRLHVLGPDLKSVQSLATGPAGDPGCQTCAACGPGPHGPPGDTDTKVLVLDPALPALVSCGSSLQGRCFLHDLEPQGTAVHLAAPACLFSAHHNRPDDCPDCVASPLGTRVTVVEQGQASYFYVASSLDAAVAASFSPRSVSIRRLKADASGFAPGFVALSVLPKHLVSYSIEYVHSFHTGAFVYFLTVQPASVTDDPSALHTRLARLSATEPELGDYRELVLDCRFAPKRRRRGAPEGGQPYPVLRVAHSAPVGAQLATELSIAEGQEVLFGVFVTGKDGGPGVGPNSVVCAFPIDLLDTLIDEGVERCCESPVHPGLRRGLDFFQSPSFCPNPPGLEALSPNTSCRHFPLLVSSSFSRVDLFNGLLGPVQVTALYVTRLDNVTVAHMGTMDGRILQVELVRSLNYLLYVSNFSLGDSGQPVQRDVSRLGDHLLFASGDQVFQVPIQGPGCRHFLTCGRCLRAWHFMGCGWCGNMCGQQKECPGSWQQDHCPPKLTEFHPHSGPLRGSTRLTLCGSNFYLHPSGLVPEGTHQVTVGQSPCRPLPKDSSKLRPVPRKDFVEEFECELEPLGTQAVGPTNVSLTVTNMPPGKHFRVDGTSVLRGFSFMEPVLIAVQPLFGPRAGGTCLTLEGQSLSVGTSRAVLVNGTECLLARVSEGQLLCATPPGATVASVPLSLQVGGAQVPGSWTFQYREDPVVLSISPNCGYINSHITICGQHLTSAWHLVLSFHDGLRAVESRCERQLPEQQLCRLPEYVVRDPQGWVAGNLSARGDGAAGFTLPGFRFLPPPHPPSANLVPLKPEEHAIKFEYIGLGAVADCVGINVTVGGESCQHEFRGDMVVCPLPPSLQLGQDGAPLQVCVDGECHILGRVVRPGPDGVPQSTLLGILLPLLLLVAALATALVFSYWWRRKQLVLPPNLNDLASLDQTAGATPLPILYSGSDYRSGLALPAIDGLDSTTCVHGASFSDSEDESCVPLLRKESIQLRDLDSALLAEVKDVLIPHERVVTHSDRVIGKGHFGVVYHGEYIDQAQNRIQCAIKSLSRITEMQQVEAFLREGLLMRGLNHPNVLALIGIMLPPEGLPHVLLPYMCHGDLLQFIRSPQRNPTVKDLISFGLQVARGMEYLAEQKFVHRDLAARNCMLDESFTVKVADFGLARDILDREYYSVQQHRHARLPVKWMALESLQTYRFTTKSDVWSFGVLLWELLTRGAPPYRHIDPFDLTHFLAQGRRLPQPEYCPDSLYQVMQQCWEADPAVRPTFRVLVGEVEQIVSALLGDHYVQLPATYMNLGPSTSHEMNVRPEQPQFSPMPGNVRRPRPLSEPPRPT
Put plainly: Caliper mobility shift kinase inhibition assay, RON. The assay is classed as biochemical. Conditions: recombinant kinase; enzyme 0.4 nM, ATP 20 μM, incubation 3 hr. The method, then: as §1, §2

In assay [7] the test system is Kasumi−1. Nature of the assay: Cell viability assay (CellTiter-Glo), Kasumi-1. The assay is classed as cell-based. The settings on record: Homo sapiens, Kasumi-1 cells, 72 hr. The procedure: as §3
A general note: ATP-based viability assays read luminescence as a measure of living cells.

The target in assay [8] is T5, FMS (Homo sapiens, UniProt P07333).
T5 construct: purchased Invitrogen PV3249
T5 sequence (P07333 20-972): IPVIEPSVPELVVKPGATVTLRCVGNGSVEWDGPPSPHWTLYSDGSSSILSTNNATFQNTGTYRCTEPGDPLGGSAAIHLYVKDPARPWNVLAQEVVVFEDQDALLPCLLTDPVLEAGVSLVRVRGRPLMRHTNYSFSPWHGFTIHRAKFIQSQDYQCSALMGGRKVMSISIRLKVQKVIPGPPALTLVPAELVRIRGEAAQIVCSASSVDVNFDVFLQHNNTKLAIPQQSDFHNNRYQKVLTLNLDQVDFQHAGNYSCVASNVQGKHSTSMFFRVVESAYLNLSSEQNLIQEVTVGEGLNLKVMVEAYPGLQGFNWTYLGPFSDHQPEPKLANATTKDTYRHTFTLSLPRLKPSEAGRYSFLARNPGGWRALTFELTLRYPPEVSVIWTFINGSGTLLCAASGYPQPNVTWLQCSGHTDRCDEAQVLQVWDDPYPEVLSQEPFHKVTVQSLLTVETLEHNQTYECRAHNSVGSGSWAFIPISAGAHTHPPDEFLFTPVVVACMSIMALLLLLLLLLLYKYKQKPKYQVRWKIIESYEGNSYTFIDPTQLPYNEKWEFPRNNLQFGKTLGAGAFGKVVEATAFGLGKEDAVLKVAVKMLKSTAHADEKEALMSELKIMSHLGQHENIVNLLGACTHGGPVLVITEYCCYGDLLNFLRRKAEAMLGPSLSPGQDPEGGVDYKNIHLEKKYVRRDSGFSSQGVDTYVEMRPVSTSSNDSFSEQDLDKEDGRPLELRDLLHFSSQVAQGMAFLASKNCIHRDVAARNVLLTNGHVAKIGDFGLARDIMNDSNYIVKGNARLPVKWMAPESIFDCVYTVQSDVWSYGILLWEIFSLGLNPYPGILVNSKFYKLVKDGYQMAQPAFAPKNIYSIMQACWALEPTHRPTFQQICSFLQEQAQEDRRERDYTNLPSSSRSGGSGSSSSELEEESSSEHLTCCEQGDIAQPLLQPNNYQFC
Put plainly: Caliper mobility shift kinase inhibition assay, FMS. The assay is classed as biochemical. The settings on record: recombinant kinase; enzyme 0.25 nM, ATP 100 μM, incubation 3 hr. The method, then:
as §1, §2

The structures appear in SMILES notation.

T1 sequence (P09769 whole entry): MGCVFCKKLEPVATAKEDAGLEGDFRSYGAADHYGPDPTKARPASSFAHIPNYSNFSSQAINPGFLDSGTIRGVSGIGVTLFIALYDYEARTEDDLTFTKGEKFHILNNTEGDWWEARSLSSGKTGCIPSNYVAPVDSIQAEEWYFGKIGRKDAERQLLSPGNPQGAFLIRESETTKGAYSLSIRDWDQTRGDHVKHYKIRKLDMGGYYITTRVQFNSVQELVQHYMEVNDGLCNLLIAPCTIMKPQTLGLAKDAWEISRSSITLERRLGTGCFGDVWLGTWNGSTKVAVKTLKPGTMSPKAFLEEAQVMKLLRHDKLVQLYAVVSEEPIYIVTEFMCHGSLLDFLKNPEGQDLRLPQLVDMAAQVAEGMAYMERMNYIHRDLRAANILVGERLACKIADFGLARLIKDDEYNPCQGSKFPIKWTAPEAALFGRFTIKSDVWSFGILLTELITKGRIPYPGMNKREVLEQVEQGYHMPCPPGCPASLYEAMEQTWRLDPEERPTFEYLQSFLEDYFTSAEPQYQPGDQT

Take `Cc1cc(Nc2cc(NCCNC(=O)[C@H](C)N(C)C(=O)/C=C/CN(C)C)nc(Nc3ccc(CC#N)cc3)n2)n[nH]1` [Compound 1]: the IC50 (as a rule, the midpoint of a concentration-inhibition curve) in assay [1] is 10 to 100 nM; in assay [2] it was below 10 nM; in assay [3] it was below 10 nM; in assay [6], 100 to 1000 nM; in assay [8], below 10 nM. Moreover, the GI50 (usually the concentration giving 50% growth inhibition) in assay [4] was at least 1000 nM; in assay [5], below 10 nM; in assay [7] it was 100 to 1000 nM.

For `C=CC(=O)N(C)[C@@H](C)C(=O)NCCOc1cc(C)nc(Nc2ncc(-c3ccccc3)s2)c1` [Compound 12, (2S)—N-[2-[[2-methyl-6-[(5-phenylthiazol-2-yl)amino]-4-pyridyl]oxy]ethyl]-2-[methyl(prop-2-enoyl)amino]propanamide], the IC50 in assay [2] and in assay [3] was below 10 nM each time. Further, the values for the GI50 in assay [4], in assay [5] and in assay [7] were at least 1000 nM, below 10 nM and below 10 nM, respectively.

For the compound `C=CC(=O)N(C)[C@@H](C)C(=O)NCCOc1cc(Nc2ncc(-c3ccccc3)s2)nc(C)n1` [Compound 13, (2S)—N-[2-[2-methyl-6-[(5-phenylthiazol-2-yl)amino]pyrimidin-4-yl]oxyethyl]-2-[methyl(prop-2-enoyl)amino]propanamide], the half-inhibitory concentration (IC50) in assay [2] and in assay [3] was below 10 nM in each case. Besides, the values for the GI50 in assay [4], in assay [5] and in assay [7] were at least 1000 nM, below 10 nM and below 10 nM, respectively.

On to `C=CC(=O)N(C)[C@@H](C)C(=O)NCCNc1cc(Nc2ncc(-c3ccncc3)s2)nc(C)n1` [Compound 17, (2S)-2-[methyl(prop-2-enoyl)amino]-N-[2-[[2-methyl-6-[[5-(4-pyridyl)thiazol-2-yl]amino]pyrimidin-4-yl]amino]ethyl]propanamide], for which the half-maximal inhibitory concentration (IC50) in assay [2] and in assay [3] was below 10 nM throughout. Moreover, the values for the GI50 in assay [4], in assay [5] and in assay [7] were at least 1000 nM, below 10 nM and below 10 nM, respectively.

`CC#CC(=O)N(C)[C@@H](C)C(=O)NCCNc1cc(Nc2ncc(-c3ccncc3)s2)nc(C)n1` [Compound 18, N-methyl-N-[(1S)-1-methyl-2-[2-[[2-methyl-6-[[5-(4-pyridyl)thiazol-2-yl]amino]pyrimidin-4-yl]amino]ethylamino]-2-oxo-ethyl]but-2-ynamide]: the IC50 in assay [2] and in assay [3] was below 10 nM in each case. The concentration for 50% growth inhibition (GI50) in assay [4] was at least 1000 nM; in assay [5], below 10 nM; in assay [7], below 10 nM.

With `Cc1c(C(=O)NCCNC(=O)[C@H](C)N(C)C(=O)/C=C/CN(C)C)c[nH]c1/C=C1\C(=O)Nc2ccc(F)cc21` [Compound 26, N-(2-((S)-2-((E)-4-(dimethylamino)-N-methylbut-2-enamido)propanamido)ethyl)-5-((Z)-(5-fluoro-2-oxoindolin-3-ylidene)methyl)-4-methyl-1H-pyrrole-3-carboxamide], the concentration for half-maximal inhibition (IC50) in assay [1] was 100 to 1000 nM; in assay [2], below 10 nM; in assay [3], below 10 nM; in assay [6] it was 100 to 1000 nM; in assay [8] it was below 10 nM. Besides, the figures for the GI50 in assay [4] and in assay [5] were at least 1000 nM and below 10 nM, respectively.
